Toxic doses and inconclusive results are not listed.
Tested on: P388 leukemia ip, CD2F1 mice, survival T/C
Experiment: NCI In Vivo Anticancer Drug Screen. Data for tumor model P388 Leukemia (intraperitoneal) in CD2F1 (CDF1) mice
Details: endpoint: median survival time, higher = longer survival
Summary of the method: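 Mice carrying the transplanted tumor received test compound or vehicle. Survival was recorded in each group, and the value is the treated-group measurement divided by that of the vehicle-treated control group.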

In the case of O=C1NC(c2cccc3ccccc23)Nc2ccccc21 (configuration not stated), the T/C (dose: 8.0 mg/kg/injection, schedule: Q03HX008 (ip), vehicle: Klucel (hydroxypropylcellulose) (HPC)) is reported as 118 % of control, the T/C (dose: 8.0 mg/kg/injection, schedule: Q03HX008 (ip), vehicle: other) is reported as 109 % of control and the T/C (dose: 8.0 mg/kg/injection, schedule: Q03HX008 (oral), vehicle: Klucel (hydroxypropylcellulose) (HPC)) is reported as 99 % of control. The T/C (dose: 8.0 mg/kg/injection, schedule: Q03HX008 (oral), vehicle: other) was 100 % of control, the T/C (dose: 8.0 mg/kg/injection, schedule: Q03HX016 (ip), vehicle: Klucel (hydroxypropylcellulose) (HPC)) was 124 % of control and the T/C (dose: 8.0 mg/kg/injection, schedule: Q03HX016 (ip), vehicle: other) was 101 % of control. For the same compound, the T/C (dose: 8.0 mg/kg/injection, schedule: Q03HX016 (oral), vehicle: Klucel (hydroxypropylcellulose) (HPC)) was 100 % of control, the T/C (dose: 8.0 mg/kg/injection, schedule: Q03HX016 (oral), vehicle: other) was 114 % of control and the T/C (dose: 8.0 mg/kg/injection, schedule: Q03HX024 (ip), vehicle: other) was 124 % of control. For the same compound, the T/C (dose: 8.0 mg/kg/injection, schedule: Q03HX024 (oral), vehicle: Klucel (hydroxypropylcellulose) (HPC)) was 101 % of control, the T/C (dose: 8.0 mg/kg/injection, schedule: Q03HX024 (oral), vehicle: other) was 108 % of control and the T/C (dose: 16.0 mg/kg/injection, schedule: Q01DX009 (ip), vehicle: Klucel (hydroxypropylcellulose) (HPC)) was 155 % of control. The T/C (dose: 16.0 mg/kg/injection, schedule: Q01DX009 (ip), vehicle: other) was 108 % of control, the T/C (dose: 16.0 mg/kg/injection, schedule: Q01DX009 (oral), vehicle: Klucel (hydroxypropylcellulose) (HPC)) was 100 % of control and the T/C (dose: 16.0 mg/kg/injection, schedule: Q01DX009 (oral), vehicle: other) was 100 % of control. For the same compound, the T/C (dose: 16.0 mg/kg/injection, schedule: Q01DX009 (sc), vehicle: Klucel (hydroxypropylcellulose) (HPC)) was 106 % of control, the T/C (dose: 16.0 mg/kg/injection, schedule: Q01DX009 (sc), vehicle: other) was 94 % of control and the T/C (dose: 16.0 mg/kg/injection, schedule: Q03HX008 (ip), vehicle: other) was 117 % of control. The T/C (dose: 16.0 mg/kg/injection, schedule: Q03HX008 (oral), vehicle: Klucel (hydroxypropylcellulose) (HPC)) was 95 % of control, the T/C (dose: 16.0 mg/kg/injection, schedule: Q03HX008 (oral), vehicle: other) was 104 % of control and the T/C (dose: 16.0 mg/kg/injection, schedule: Q03HX016 (ip), vehicle: other) was 123 % of control. The T/C (dose: 16.0 mg/kg/injection, schedule: Q03HX016 (oral), vehicle: Klucel (hydroxypropylcellulose) (HPC)) was 102 % of control, the T/C (dose: 16.0 mg/kg/injection, schedule: Q03HX016 (oral), vehicle: other) was 115 % of control and the T/C (dose: 16.0 mg/kg/injection, schedule: Q03HX024 (ip), vehicle: Klucel (hydroxypropylcellulose) (HPC)) was 174 % of control. For the same compound, the T/C (dose: 16.0 mg/kg/injection, schedule: Q03HX024 (oral), vehicle: Klucel (hydroxypropylcellulose) (HPC)) was 102 % of control, the T/C (dose: 32.0 mg/kg/injection, schedule: Q01DX009 (ip), vehicle: Klucel (hydroxypropylcellulose) (HPC)) was 177 % of control and the T/C (dose: 32.0 mg/kg/injection, schedule: Q01DX009 (ip), vehicle: other) was 102 % of control. The T/C (dose: 32.0 mg/kg/injection, schedule: Q01DX009 (oral), vehicle: Klucel (hydroxypropylcellulose) (HPC)) was 102 % of control, the T/C (dose: 32.0 mg/kg/injection, schedule: Q01DX009 (oral), vehicle: other) was 107 % of control and the T/C (dose: 32.0 mg/kg/injection, schedule: Q01DX009 (sc), vehicle: Klucel (hydroxypropylcellulose) (HPC)) was 114 % of control. The T/C (dose: 32.0 mg/kg/injection, schedule: Q01DX009 (sc), vehicle: other) was 117 % of control, the T/C (dose: 32.0 mg/kg/injection, schedule: Q03HX008 (ip), vehicle: Klucel (hydroxypropylcellulose) (HPC)) was 173 % of control and the T/C (dose: 32.0 mg/kg/injection, schedule: Q03HX008 (oral), vehicle: Klucel (hydroxypropylcellulose) (HPC)) was 99 % of control. The T/C (dose: 32.0 mg/kg/injection, schedule: Q03HX008 (oral), vehicle: other) was 122 % of control, the T/C (dose: 32.0 mg/kg/injection, schedule: Q03HX016 (ip), vehicle: Klucel (hydroxypropylcellulose) (HPC)) was 200 % of control and the T/C (dose: 32.0 mg/kg/injection, schedule: Q03HX016 (oral), vehicle: Klucel (hydroxypropylcellulose) (HPC)) was 110 % of control. The T/C (dose: 32.0 mg/kg/injection, schedule: Q03HX024 (oral), vehicle: Klucel (hydroxypropylcellulose) (HPC)) was 109 % of control, the T/C (dose: 32.0 mg/kg/injection, schedule: Q03HX024 (oral), vehicle: other) was 168 % of control and the T/C (dose: 64.0 mg/kg/injection, schedule: Q01DX001 (ip), vehicle: Klucel (hydroxypropylcellulose) (HPC)) was 113 % of control. For the same compound, the T/C (dose: 64.0 mg/kg/injection, schedule: Q01DX001 (ip), vehicle: other) was 99 % of control, the T/C (dose: 64.0 mg/kg/injection, schedule: Q01DX001 (oral), vehicle: Klucel (hydroxypropylcellulose) (HPC)) was 100 % of control and the T/C (dose: 64.0 mg/kg/injection, schedule: Q01DX001 (oral), vehicle: other) was 94 % of control. For the same compound, the T/C (dose: 64.0 mg/kg/injection, schedule: Q01DX009 (ip), vehicle: Klucel (hydroxypropylcellulose) (HPC)) was 194 % of control, the T/C (dose: 64.0 mg/kg/injection, schedule: Q01DX009 (ip), vehicle: other) was 120 % of control and the T/C (dose: 64.0 mg/kg/injection, schedule: Q01DX009 (oral), vehicle: Klucel (hydroxypropylcellulose) (HPC)) was 108 % of control. For the same compound, the T/C (dose: 64.0 mg/kg/injection, schedule: Q01DX009 (oral), vehicle: other) was 118 % of control, the T/C (dose: 64.0 mg/kg/injection, schedule: Q03HX008 (oral), vehicle: Klucel (hydroxypropylcellulose) (HPC)) was 108 % of control and the T/C (dose: 64.0 mg/kg/injection, schedule: Q03HX016 (oral), vehicle: Klucel (hydroxypropylcellulose) (HPC)) was 116 % of control. For the same compound, the T/C (dose: 64.0 mg/kg/injection, schedule: Q03HX024 (oral), vehicle: Klucel (hydroxypropylcellulose) (HPC)) was 119 % of control, the T/C (dose: 64.0 mg/kg/injection, schedule: Q04DX003 (ip), vehicle: Klucel (hydroxypropylcellulose) (HPC)) was 118 % of control and the T/C (dose: 64.0 mg/kg/injection, schedule: Q04DX003 (ip), vehicle: other) was 91 % of control. For the same compound, the T/C (dose: 64.0 mg/kg/injection, schedule: Q04DX003 (oral), vehicle: Klucel (hydroxypropylcellulose) (HPC)) was 100 % of control, the T/C (dose: 64.0 mg/kg/injection, schedule: Q04DX003 (oral), vehicle: other) was 117 % of control and the T/C (dose: 64.0 mg/kg/injection, schedule: Q04DX003 (sc), vehicle: Klucel (hydroxypropylcellulose) (HPC)) was 113 % of control. For the same compound, the T/C (dose: 64.0 mg/kg/injection, schedule: Q04DX003 (sc), vehicle: other) was 107 % of control, the T/C (dose: 64.0 mg/kg/injection, schedule: Q08DX002 (ip), vehicle: Klucel (hydroxypropylcellulose) (HPC)) was 118 % of control and the T/C (dose: 64.0 mg/kg/injection, schedule: Q08DX002 (ip), vehicle: other) was 100 % of control. For the same compound, the T/C (dose: 64.0 mg/kg/injection, schedule: Q08DX002 (oral), vehicle: Klucel (hydroxypropylcellulose) (HPC)) was 102 % of control, the T/C (dose: 64.0 mg/kg/injection, schedule: Q08DX002 (oral), vehicle: other) was 104 % of control and the T/C (dose: 128.0 mg/kg/injection, schedule: Q01DX001 (ip), vehicle: Klucel (hydroxypropylcellulose) (HPC)) was 121 % of control. For the same compound, the T/C (dose: 128.0 mg/kg/injection, schedule: Q01DX001 (ip), vehicle: other) was 104 % of control, the T/C (dose: 128.0 mg/kg/injection, schedule: Q01DX001 (oral), vehicle: Klucel (hydroxypropylcellulose) (HPC)) was 99 % of control and the T/C (dose: 128.0 mg/kg/injection, schedule: Q01DX001 (oral), vehicle: other) was 108 % of control. For the same compound, the T/C (dose: 128.0 mg/kg/injection, schedule: Q01DX009 (oral), vehicle: Klucel (hydroxypropylcellulose) (HPC)) was 109 % of control, the T/C (dose: 128.0 mg/kg/injection, schedule: Q03HX008 (oral), vehicle: Klucel (hydroxypropylcellulose) (HPC)) was 110 % of control and the T/C (dose: 128.0 mg/kg/injection, schedule: Q03HX016 (oral), vehicle: Klucel (hydroxypropylcellulose) (HPC)) was 122 % of control. The T/C (dose: 128.0 mg/kg/injection, schedule: Q04DX003 (ip), vehicle: other) was 109 % of control, the T/C (dose: 128.0 mg/kg/injection, schedule: Q04DX003 (oral), vehicle: Klucel (hydroxypropylcellulose) (HPC)) was 105 % of control and the T/C (dose: 128.0 mg/kg/injection, schedule: Q04DX003 (oral), vehicle: other) was 122 % of control. The T/C (dose: 128.0 mg/kg/injection, schedule: Q04DX003 (sc), vehicle: Klucel (hydroxypropylcellulose) (HPC)) was 115 % of control, the T/C (dose: 128.0 mg/kg/injection, schedule: Q04DX003 (sc), vehicle: other) was 114 % of control and the T/C (dose: 128.0 mg/kg/injection, schedule: Q08DX002 (ip), vehicle: other) was 94 % of control. The T/C (dose: 128.0 mg/kg/injection, schedule: Q08DX002 (oral), vehicle: Klucel (hydroxypropylcellulose) (HPC)) was 106 % of control, the T/C (dose: 256.0 mg/kg/injection, schedule: Q01DX001 (ip), vehicle: other) was 105 % of control and the T/C (dose: 256.0 mg/kg/injection, schedule: Q01DX001 (oral), vehicle: Klucel (hydroxypropylcellulose) (HPC)) was 101 % of control. The T/C (dose: 256.0 mg/kg/injection, schedule: Q01DX009 (oral), vehicle: Klucel (hydroxypropylcellulose) (HPC)) was 116 % of control, the T/C (dose: 256.0 mg/kg/injection, schedule: Q01DX009 (sc), vehicle: Klucel (hydroxypropylcellulose) (HPC)) was 91 % of control and the T/C (dose: 256.0 mg/kg/injection, schedule: Q04DX003 (ip), vehicle: Klucel (hydroxypropylcellulose) (HPC)) was 168 % of control. For the same compound, the T/C (dose: 256.0 mg/kg/injection, schedule: Q04DX003 (ip), vehicle: other) was 109 % of control, the T/C (dose: 256.0 mg/kg/injection, schedule: Q04DX003 (oral), vehicle: Klucel (hydroxypropylcellulose) (HPC)) was 107 % of control and the T/C (dose: 256.0 mg/kg/injection, schedule: Q04DX003 (oral), vehicle: other) was 95 % of control. The T/C (dose: 256.0 mg/kg/injection, schedule: Q04DX003 (sc), vehicle: Klucel (hydroxypropylcellulose) (HPC)) was 122 % of control, the T/C (dose: 256.0 mg/kg/injection, schedule: Q08DX002 (ip), vehicle: other) was 108 % of control and the T/C (dose: 256.0 mg/kg/injection, schedule: Q08DX002 (oral), vehicle: Klucel (hydroxypropylcellulose) (HPC)) was 106 % of control. The T/C (dose: 512.0 mg/kg/injection, schedule: Q01DX001 (oral), vehicle: Klucel (hydroxypropylcellulose) (HPC)) was 102 % of control, the T/C (dose: 512.0 mg/kg/injection, schedule: Q04DX003 (oral), vehicle: Klucel (hydroxypropylcellulose) (HPC)) was 116 % of control and the T/C (dose: 512.0 mg/kg/injection, schedule: Q08DX002 (ip), vehicle: Klucel (hydroxypropylcellulose) (HPC)) was 185 % of control. The T/C (dose: 512.0 mg/kg/injection, schedule: Q08DX002 (oral), vehicle: Klucel (hydroxypropylcellulose) (HPC)) was 108 % of control, the T/C (dose: 1024.0 mg/kg/injection, schedule: Q01DX001 (oral), vehicle: Klucel (hydroxypropylcellulose) (HPC)) was 101 % of control and the T/C (dose: 1024.0 mg/kg/injection, schedule: Q04DX003 (oral), vehicle: Klucel (hydroxypropylcellulose) (HPC)) was 106 % of control. The T/C (dose: 1024.0 mg/kg/injection, schedule: Q04DX003 (sc), vehicle: Klucel (hydroxypropylcellulose) (HPC)) was 123 % of control and the T/C (dose: 1024.0 mg/kg/injection, schedule: Q08DX002 (oral), vehicle: Klucel (hydroxypropylcellulose) (HPC)) was 115 % of control.

— PubChem BioAssay AID330 (DTP/NCI, 2004)
